Data set [1] relates to washed human platelets. As to the kind of experiment: Lactate dehydrogenase (LDH) leakage cytotoxicity assay. It counts as cell-based. Particulars: 50 µM; compared with positive control Triton X-100. The method, then:
The cytotoxicity of the active analogs was determined with the lactate dehydrogenase (LDH) leakage assay to ensure that platelet inhibition was a consequence of pharmacologic inhibition and not cytotoxicity. LDH is a stable cytosolic marker for membrane perturbation and is present in many cell types, including platelets.
Compound cytotoxicity was assessed using LDH Cytotoxicity Assay Kit (No. 601170; Cayman Chemical, MI) as previously described. Washed human platelets (2.5 × 10^8/mL) were incubated at 37 °C for 10 min with the highest concentration of compounds (50 µM for R-G04 and S-G04, and 20 µM for Rhosin analogs) or the vehicle, dimethyl sulfoxide (DMSO) 0.1% or 10% Triton X-100, which served as the positive control. The platelets were centrifuged at 800× g for 8 min at 4 °C, and 100 µL of the supernatant was mixed with 100 µL of LDH reaction solution in a 96-well plate. The plate was incubated at 37 °C for 10 min under constant orbital shaking before measurement of the absorbance at 490 nm in a plate reader (BioTek Synergy LX multimode reader; Santa Clara, CA, USA).

Data set [2] concerns washed human platelets. Kind of data set: Platelet aggregation induced by AA, U46619, ADP or thrombin. It counts as cell-based. Particulars: 10 µM S-G04 or 20 µM R-G04, 2 min pre-incubation. An excerpt:
TxA2 is a metabolite derived from AA via the COX pathway, a potent vasoconstrictor, and a platelet agonist that results in irreversible platelet aggregation. […] The data in Figure 7 show the potential of the RhoA inhibitors to inhibit platelet aggregation mediated by diverse agonists, i.e., TxA2, ADP, U46619, AA, and thrombin, and ATP secretion, highlighting the potential to inhibit multiple-agonist-mediated platelet activation pathways at micromolar concentrations.
(A–D) Washed human platelets were pre-incubated with 10 µM S-G04 or 20 µM R-G04 for 2 min before being stimulated with Arachidonic Acid (AA), U46619, ADP, or Thrombin. The % platelet aggregation was measured 5 min after agonist stimulation. (E) Washed human platelets were pre-incubated with 10 µM S-G04 or 20 µM R-G04 for 2 min and with Chrono-lume® for 30 s at 37 °C before being stimulated with 0.1 U/mL Thrombin. […] TxB2 formation was determined using a TxB2 ELISA kit. The differences among DMSO, R-G04, and S-G04 were analyzed using t-test, and the results are shown as means ± SDs of three independent experiments. (* p < 0.05, ** p < 0.01, *** p < 0.001, and **** p < 0.0001).
The in vitro antiplatelet activity of the compounds was assayed on washed human platelets using light transmission aggregometry. Platelet aggregation was performed using a 4-channel Lumi-aggregometer (Chronolog, PA, USA) at 37 °C and stirring speed of 900 rpm. A volume of 250 µL of washed human platelets (2.5 × 10^8/mL) was pre-warmed to 37 °C along with the compounds or DMSO (0.1%) for 2 min before the addition of agonists such as collagen, AA, U46619 (a stable synthetic analog of thromboxane A2), ADP, and thrombin. For ATP secretion, platelets were pre-incubated with a luciferin/luciferase kit (Chrono-lume®) for 30 s at 37 °C before the addition of the agonist. The reactions were allowed to proceed for at least 4 min, and the results of platelet aggregation and ATP secretion were determined using Aggrolink software. Platelet aggregation was expressed as the maximum change in the light transmission, where the 100% value corresponded to treatment with the agonist alone. Compounds were evaluated in triplicate at nine compound concentrations ranging from 50 µM to 1 µM. The half-maximal inhibitory concentration (IC50) value was calculated as the concentration of the inhibitor causing 50% inhibition of aggregation.

For another data set, the system named is RhoA. Kind of data set: RhoA-GTP formation, GST-Rhotekin effector pull-down assay in collagen-stimulated platelets. It counts as cell-based, human. Particulars: R-G04 10 µM or 50 µM, S-G04 3 µM or 20 µM; collagen 1 µg/mL. The method, then: Next, the ability of the six compounds to suppress RhoA activity in platelets was assessed by subjecting them to a GST (Glutathione-S-transferase)-Rhotekin effector pull-down assay. The compounds were incubated with washed human platelets for 2 min before being stimulated with 1 µg/mL collagen. The analogs inhibited the activation of RhoA at the 20 µM concentration (Figure 2A,B). […] After confirming that these analogs could prevent RhoA activation and the phosphorylation of the MLC, their ability to disrupt complex-formation between RhoA and LARG was tested. […] These findings indicate that the active analogs inhibit RhoA activation by disrupting the binding between RhoA and its GEF.
(A,B) Washed human platelets were incubated with collagen (1 µg/mL) for 4 min, and the levels of RhoA-GTP formation were quantified with a GST-Rhotekin effector pull-down assay. The platelets were pre-incubated with 20 µM UC-177618, UC-177619, UC-177628, UC-177629, […], or […] for 2 min before being stimulated with collagen. The addition of ice-cold lysis buffer terminated the reaction. […] Relative amounts of the GTP-bound form of RhoA were quantified with densitometry measurements of total RhoA (T-RhoA) and normalized to untreated platelets. (C,D) The addition of 20 µM of active Rhosin-related compounds to washed human platelets 2 min before stimulation with collagen blocked the phosphorylation of the myosin light chain (p-MLC). The reactions were terminated after 4 min by adding 4x Laemmli sample buffer. The samples were processed for Western blotting and probed for MLC and p-MLC, and phosphorylation was quantified by measuring the densitometry of total MLC (T-MLC). The differences between DMSO- and Rhosin-related compounds were analyzed with t-test, and the results are shown as means ± SDs of three independent experiments. (* p < 0.05, ** p < 0.01, *** p < 0.001, and **** p < 0.0001).
The relative levels of RhoA-GTP in washed human platelets were quantified with effector domains GST-Rhotekin pull-down assays as previously reported. A volume of 250 µL of washed human platelets (2.5 × 10^8/mL) was pre-warmed to 37 °C along with the compounds or DMSO (0.1%) for 2 min before being stimulated with collagen (1 µg/mL). The reactions were terminated 4 min after collagen stimulation by adding ice-cold lysis buffer (20 mM Tris·HCl (pH 7.6), 100 mM NaCl, 1% Triton X-100, 0.2% Sodium Deoxycholate, 10 mM MgCl2, 1 mM dithiothreitol, 1x protease inhibitor cocktail, and 1x phosphatase inhibitor cocktail). The supernatants were collected and subjected to the GST-Rhotekin pull-down assay. The total cell lysates were also blotted in parallel. GTP-bound RhoA was quantitatively detected with Western blotting using an anti-RhoA antibody. The relative amounts of RhoA were quantified with densitometry measurements and normalized to the untreated platelets.

Molecules are shown by their SMILES.

For `N[C@@H](Cc1c[nH]c2ccccc12)C(=O)N/N=C/c1ccc2nccnc2c1` [S-G04], in the data set on washed human platelets [1], the “cytotoxicity, LDH assay” value is given as “neither R-G04 nor S-G04 induced significant human platelet cytolysis”. In the data set with washed human platelets [2], the AA-induced platelet aggregation entry is “suppressed the platelet activation”, the ADP-induced platelet aggregation result is given as “significantly inhibited ADP-induced platelet aggregation”, the U46619-induced platelet aggregation entry is on record as “suppressed the platelet activation” and the thrombin-induced platelet aggregation entry was “suppressed the platelet activation”. Further, the RhoA-GTP formation result in the data set with RhoA is “inhibited RhoA-GTP formation in a concentration-dependent manner”.
Take `N[C@H](Cc1c[nH]c2ccccc12)C(=O)N/N=C/c1ccc2nccnc2c1` [R-G04]: the “cytotoxicity, LDH assay” value with washed human platelets [1] is given as “neither R-G04 nor S-G04 induced significant human platelet cytolysis”. Besides, in the data set on washed human platelets [2], the AA-induced platelet aggregation entry is on record as “failed to have the same inhibitory effect”, the ADP-induced platelet aggregation result is on record as “significantly inhibited ADP-induced platelet aggregation”, the U46619-induced platelet aggregation result is listed as “failed to have the same inhibitory effect” and the thrombin-induced platelet aggregation entry is on record as “failed to have the same inhibitory effect”. Also, the RhoA-GTP formation result in the data set on RhoA was “inhibited RhoA-GTP formation in a concentration-dependent manner”.

The values above are taken from article PMC9961652 (International Journal of Molecular Sciences, 2023).
